Assay results taken from patent US20230123334A1, “AMINO LIPID COMPOUND, PREPARATION METHOD THEREFOR, AND APPLICATION THEREOF” (SHENZHEN SHENXIN BIOTECHNOLOGY CO., LTD., priority 2020, published 2023).

Each compound was assayed on HEK293 cells (assay: Preliminary screening as DNA vectors, GFP transfection of HEK293 cells). Details: amino lipid/DOPE liposome with 75 ng plasmid DNA (psin-EGFP-IRES-Puro); number of GFP-expressing cells divided by total nuclei (Hoechst).
Assay type: cell-based
How it was run: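 First, amino lipid and DOPE were vortexed in sodium acetate buffer (pH 5.6) to form liposomes. Next, these were held with 75 ng EGFP plasmid at room temperature for 30 min. Finally, HEK293 cells were added, cultured at 37° C., Hoechst-stained, and GFP+/total nuclei scored by imaging.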

Point of comparison: `CCCCCCCCCCCCCCSc1nc(NCCCCCCC)nc(NCCCN2CCN(C)CC2)n1` [S14N7 D9], “Absolute DNA transfection efficiency in HEK293 cells” value 16.1%. Against it:
- CCCCCCCCCCCCCNc1nc(NCCN2CCCCC2)nc(SCCCCCCCCCCCC)n1 [S12N13 D4] — lower, 0.5%
- CCCCCCCCCCCCCNc1nc(NCCN2CCN(C)CC2)nc(SCCCCCCCCCCCC)n1 [S12N13 D5] — lower, 1.5%
- CCCCCCCCCCCCCNc1nc(NCCCN(C)C)nc(SCCCCCCCCCCCC)n1 [S12N13 D6] — lower, 7.0%
- CCCCCCCCCCCCCNc1nc(NCCN(CC)CC)nc(SCCCCCCCCCCCC)n1 [S12N13 D7] — lower, 12.9%
- CCCCCCCCCCCCCNc1nc(NCCCN2CCOCC2)nc(SCCCCCCCCCCCC)n1 [S12N13 D8] — lower, 0.0%
- CCCCCCCCCCCCCNc1nc(NCCCN2CCN(C)CC2)nc(SCCCCCCCCCCCC)n1 [S12N13 D9] — lower, 2.1%
- CCCCCCCCCCCCCNc1nc(NCC2CCN(C)CC2)nc(SCCCCCCCCCCCC)n1 [S12N13 D10] — lower, 2.4%
- CCCCCCCCCCCCCCCNc1nc(NCCN(C)C)nc(SCCCCCCCCCCCC)n1 [S12N15 D1] — lower, 0.8%
- CCCCCCCCCCCCCCCNc1nc(NCCN2CCOCC2)nc(SCCCCCCCCCCCC)n1 [S12N15 D2] — lower, 0.0%
- CCCCCCCCCCCCCCCNc1nc(NCCN2CCCC2)nc(SCCCCCCCCCCCC)n1 [S12N15 D3] — lower, 2.0%
- CCCCCCCCCCCCCCCNc1nc(NCCN2CCCCC2)nc(SCCCCCCCCCCCC)n1 [S12N15 D4] — lower, 1.0%
- CCCCCCCCCCCCCCCNc1nc(NCCN2CCN(C)CC2)nc(SCCCCCCCCCCCC)n1 [S12N15 D5] — lower, 0.2%
- CCCCCCCCCCCCCCCNc1nc(NCCCN(C)C)nc(SCCCCCCCCCCCC)n1 [S12N15 D6] — lower, 0.9%
- CCCCCCCCCCCCCCCNc1nc(NCCN(CC)CC)nc(SCCCCCCCCCCCC)n1 [S12N15 D7] — lower, 3.6%
- CCCCCCCCCCCCCCCNc1nc(NCCCN2CCOCC2)nc(SCCCCCCCCCCCC)n1 [S12N15 D8] — lower, 0.0%
- CCCCCCCCCCCCCCCNc1nc(NCCCN2CCN(C)CC2)nc(SCCCCCCCCCCCC)n1 [S12N15 D9] — lower, 0.2%
- CCCCCCCCCCCCCCCNc1nc(NCC2CCN(C)CC2)nc(SCCCCCCCCCCCC)n1 [S12N15 D10] — lower, 4.0%
- CCCCCCCCCCCCCCCCNc1nc(NCCN(C)C)nc(SCCCCCCCCCCCC)n1 [S12N16 D1] — lower, 0.5%
- CCCCCCCCCCCCCCCCNc1nc(NCCN2CCOCC2)nc(SCCCCCCCCCCCC)n1 [S12N16 D2] — lower, 0.0%
- CCCCCCCCCCCCCCCCNc1nc(NCCN2CCCC2)nc(SCCCCCCCCCCCC)n1 [S12N16 D3] — lower, 2.6%
- CCCCCCCCCCCCCCCCNc1nc(NCCN2CCCCC2)nc(SCCCCCCCCCCCC)n1 [S12N16 D4] — lower, 0.7%
- CCCCCCCCCCCCCCCCNc1nc(NCCN2CCN(C)CC2)nc(SCCCCCCCCCCCC)n1 [S12N16 D5] — lower, 0.7%
- CCCCCCCCCCCCCCCCNc1nc(NCCCN(C)C)nc(SCCCCCCCCCCCC)n1 [S12N16 D6] — lower, 2.1%
- CCCCCCCCCCCCCCCCNc1nc(NCCN(CC)CC)nc(SCCCCCCCCCCCC)n1 [S12N16 D7] — lower, 3.6%
- CCCCCCCCCCCCCCCCNc1nc(NCCCN2CCOCC2)nc(SCCCCCCCCCCCC)n1 [S12N16 D8] — lower, 0.0%
- CCCCCCCCCCCCCCCCNc1nc(NCCCN2CCN(C)CC2)nc(SCCCCCCCCCCCC)n1 [S12N16 D9] — lower, 0.4%
- CCCCCCCCCCCCCCCCNc1nc(NCC2CCN(C)CC2)nc(SCCCCCCCCCCCC)n1 [S12N16 D10] — lower, 2.4%
- CCCCCCCCCCCCCCCCCCNc1nc(NCCN(C)C)nc(SCCCCCCCCCCCC)n1 [S12N18 D1] — lower, 0.7%
- CCCCCCCCCCCCCCCCCCNc1nc(NCCN2CCOCC2)nc(SCCCCCCCCCCCC)n1 [S12N18 D2] — lower, 0.0%
- CCCCCCCCCCCCCCCCCCNc1nc(NCCN2CCCC2)nc(SCCCCCCCCCCCC)n1 [S12N18 D3] — lower, 3.9%
- CCCCCCCCCCCCCCCCCCNc1nc(NCCN2CCCCC2)nc(SCCCCCCCCCCCC)n1 [S12N18 D4] — lower, 0.3%
- CCCCCCCCCCCCCCCCCCNc1nc(NCCN2CCN(C)CC2)nc(SCCCCCCCCCCCC)n1 [S12N18 D5] — lower, 0.6%
- CCCCCCCCCCCCCCCCCCNc1nc(NCCCN(C)C)nc(SCCCCCCCCCCCC)n1 [S12N18 D6] — lower, 0.6%
- CCCCCCCCCCCCCCCCCCNc1nc(NCCN(CC)CC)nc(SCCCCCCCCCCCC)n1 [S12N18 D7] — lower, 0.3%
- CCCCCCCCCCCCCCCCCCNc1nc(NCCCN2CCOCC2)nc(SCCCCCCCCCCCC)n1 [S12N18 D8] — lower, 0.0%
- CCCCCCCCCCCCCCCCCCNc1nc(NCCCN2CCN(C)CC2)nc(SCCCCCCCCCCCC)n1 [S12N18 D9] — lower, 0.2%
- CCCCCCCCCCCCCCCCCCNc1nc(NCC2CCN(C)CC2)nc(SCCCCCCCCCCCC)n1 [S12N18 D10] — lower, 3.7%
- CCCCCCCCCCCCSc1nc(NCCN(C)C)nc(N(CCCCCCCCCCCC)CCCCCCCCCCCC)n1 [S12^2N12 D1] — lower, 0.0%
- CCCCCCCCCCCCSc1nc(NCCN2CCOCC2)nc(N(CCCCCCCCCCCC)CCCCCCCCCCCC)n1 [S12^2N12 D2] — lower, 0.0%
- CCCCCCCCCCCCSc1nc(NCCN2CCCC2)nc(N(CCCCCCCCCCCC)CCCCCCCCCCCC)n1 [S12^2N12 D3] — lower, 0.0%
- CCCCCCCCCCCCSc1nc(NCCN2CCCCC2)nc(N(CCCCCCCCCCCC)CCCCCCCCCCCC)n1 [S12^2N12 D4] — lower, 0.0%
- CCCCCCCCCCCCSc1nc(NCCN2CCN(C)CC2)nc(N(CCCCCCCCCCCC)CCCCCCCCCCCC)n1 [S12^2N12 D5] — lower, 0.3%
- CCCCCCCCCCCCSc1nc(NCCCN(C)C)nc(N(CCCCCCCCCCCC)CCCCCCCCCCCC)n1 [S12^2N12 D6] — lower, 0.3%
- CCCCCCCCCCCCSc1nc(NCCN(CC)CC)nc(N(CCCCCCCCCCCC)CCCCCCCCCCCC)n1 [S12^2N12 D7] — lower, 0.1%
- CCCCCCCCCCCCSc1nc(NCCCN2CCOCC2)nc(N(CCCCCCCCCCCC)CCCCCCCCCCCC)n1 [S12^2N12 D8] — lower, 0.0%
- CCCCCCCCCCCCSc1nc(NCCCN2CCN(C)CC2)nc(N(CCCCCCCCCCCC)CCCCCCCCCCCC)n1 [S12^2N12 D9] — lower, 0.1%
- CCCCCCCCCCCCSc1nc(NCC2CCN(C)CC2)nc(N(CCCCCCCCCCCC)CCCCCCCCCCCC)n1 [S12^2N12 D10] — lower, 0.1%
- CCCCCCCCCCCCCCSc1nc(NCCCCCC)nc(NCCN(C)C)n1 [S14N6 D1] — higher, 24.1%
- CCCCCCCCCCCCCCSc1nc(NCCCCCC)nc(NCCN2CCOCC2)n1 [S14N6 D2] — higher, 18.8%
- CCCCCCCCCCCCCCSc1nc(NCCCCCC)nc(NCCN2CCCC2)n1 [S14N6 D3] — higher, 23.6%
- CCCCCCCCCCCCCCSc1nc(NCCCCCC)nc(NCCN2CCCCC2)n1 [S14N6 D4] — lower, 2.5%
- CCCCCCCCCCCCCCSc1nc(NCCCCCC)nc(NCCN2CCN(C)CC2)n1 [S14N6 D5] — higher, 21.7%
- CCCCCCCCCCCCCCSc1nc(NCCCCCC)nc(NCCCN(C)C)n1 [S14N6 D6] — higher, 30.1%
- CCCCCCCCCCCCCCSc1nc(NCCCCCC)nc(NCCN(CC)CC)n1 [S14N6 D7] — higher, 20.3%
- CCCCCCCCCCCCCCSc1nc(NCCCCCC)nc(NCCCN2CCOCC2)n1 [S14N6 D8] — lower, 13.6%
- CCCCCCCCCCCCCCSc1nc(NCCCCCC)nc(NCCCN2CCN(C)CC2)n1 [S14N6 D9] — higher, 17.4%
- CCCCCCCCCCCCCCSc1nc(NCCCCCC)nc(NCC2CCN(C)CC2)n1 [S14N6 D10] — higher, 39.0%
- CCCCCCCCCCCCCCSc1nc(NCCCCCCC)nc(NCCN(C)C)n1 [S14N7 D1] — lower, 12.5%
- CCCCCCCCCCCCCCSc1nc(NCCCCCCC)nc(NCCN2CCOCC2)n1 [S14N7 D2] — higher, 18.7%
- CCCCCCCCCCCCCCSc1nc(NCCCCCCC)nc(NCCN2CCCC2)n1 [S14N7 D3] — lower, 14.4%
- CCCCCCCCCCCCCCSc1nc(NCCCCCCC)nc(NCCN2CCCCC2)n1 [S14N7 D4] — lower, 3.7%
- CCCCCCCCCCCCCCSc1nc(NCCCCCCC)nc(NCCN2CCN(C)CC2)n1 [S14N7 D5] — higher, 16.3%
- CCCCCCCCCCCCCCSc1nc(NCCCCCCC)nc(NCCCN(C)C)n1 [S14N7 D6] — higher, 25.0%
- CCCCCCCCCCCCCCSc1nc(NCCCCCCC)nc(NCCN(CC)CC)n1 [S14N7 D7] — lower, 10.5%
- CCCCCCCCCCCCCCSc1nc(NCCCCCCC)nc(NCCCN2CCOCC2)n1 [S14N7 D8] — lower, 13.3%
- CCCCCCCCCCCCCCSc1nc(NCCCCCCC)nc(NCC2CCN(C)CC2)n1 [S14N7 D10] — higher, 34.6%
- CCCCCCCCCCCCCCSc1nc(NCCCCCCCC)nc(NCCN(C)C)n1 [S14N8 D1] — lower, 8.9%
- CCCCCCCCCCCCCCSc1nc(NCCCCCCCC)nc(NCCN2CCOCC2)n1 [S14N8 D2] — lower, 12.9%
